From PMC13224100, “Esterase-Responsive Mitochondria-Targeted Hydropersulfide Donors Mitigate Doxorubicin Cardiotoxicity While Preserving Anticancer Activity” (Angewandte Chemie (International ed. in English), 2025)

What was measured:
Format in all cases: cell-based
HepG2 cells [1] = assay: Cytotoxicity of RSSH donors, CCK-8 assay; conditions: up to 200 μM, 24 h
Experimental: (§1) We next evaluated the effects of RSSH donors on DOX activity in three representative cancer cell lines: triple-negative breast cancer MDA-MB-468, ER-positive breast cancer MCF-7, and hepatocellular carcinoma HepG2.
Figure S22. Measurement of Cys-SH and GSH in cytoplasm (A, B) and mitochondria (C, D) of H9c2 cells treated with APT-1 (200 µM) APT-1-TPP (200 µM), or vehicle (0.01% DMSO in serum-free medium) for 2 h. Data are mean ± SEM (n = 3); *p ≤ 0.05, **p ≤ 0.01.
Cytotoxicity Assessment of Hydropersulfide Precursors in H9c2 and HepG2 cells Cell viability was measured using the Cell Counting Kit-8 (CCK-8, Dojindo).[7] […] The plates were then incubated for 1-2 h before measuring absorbance at 450 nm using a plate reader […]
calculated as: % Viability = 100 × [Abs₄₅₀ (treated cells) / Abs₄₅₀ (vehicle control)]. […]
Figure S23. […] Results are expressed as mean ± SEM, n≥3; *P<0.05, **P<0.01, ***P<0.001, ****P<0.0001. […]
Cytoprotective studies were performed as previously described.[8] […] The plates were then incubated for 1-2 h before measuring absorbance at […]
The relative % cell viability was calculated as 100 times the ratio of Abs450 (RSSH donor + DOX-exposed) to Abs450 (vehicle, non-DOX-exposed). […]
Basal sulfane sulfur levels were quantified using the fluorescent probe Sulfobiotics SSP4 (Dojindo, SB10) as previously described.[5] […]

HepG2 cells [2] = assay: Effect of RSSH donors on anticancer activity of DOX, CCK-8; conditions: 4 h pretreatment, then 24 h co-treatment with DOX 5 μM
Experimental: as §1
(§2) Figure 5. Effect of RSSH donors on anticancer activity of DOX in cancer cells. MDA-MB-468, MCF-7, and HepG2 cells were pretreated with APT-1 or its mitochondria-targeted analog APT-1-TPP for 4 h, followed by co-treatment with DOX (5 μM for MDA-MB-468 and HepG2; 15 μM for MCF-7) for an additional 24 h. Results are presented as mean ± SEM, n = 3; *p < 0.05, **p < 0.01, ***p < 0.001, ****p < 0.0001. Ctl = vehicle-treated group (0.01% DMSO in medium). […]
(§3) Cytoprotective Effects of RSSH Donors against Doxorubicin Toxicity
(§4) Cytoprotective studies were performed as previously described.[8] Briefly, H9c2 cells, HepG2 cells, MDA-MB-468 cells, and MCF-7 cells were seeded at a density of 7 x 10^3 cells/well. […] Additionally, in the vehicle control group, cells were treated with medium (DMEM with 10% FBS) containing 0.01% DMSO only. The cells were then further incubated for an additional 4 h before being treated with DOX (10 μL/well, with final concentration of 5 μM). After a 24 h co-incubation with DOX, each well was carefully washed three times with PBS (pH 7.4) and 100 μL o f F B S-free medium containing 10% v/v CCK-8 (Dojindo) was added. The plates were then incubated for 1-2 h before measuring absorbance at […]
(§5) The relative % cell viability was calculated as 100 times the ratio of Abs450 (RSSH donor + DOX-exposed) to Abs450 (vehicle, non-DOX-exposed). Each treatment condition was performed in 6 technical replicates per biological replicate, and the experiment was independently repeated three times (n = 3 biological replicates). Data are presented as mean ± SEM. […]

MCF-7 cells = assay: as above; conditions: 4 h pretreatment, then 24 h co-treatment with DOX 15 μM
Experimental: as §1, §2, §3, §4, §5

MDA-MB-468 cells = assay: as above; conditions: 4 h pretreatment, then 24 h co-treatment with DOX 5 μM
Experimental: as §1, §2, §3, §4, §5

| SMILES | cytotoxicity of donor alone (HepG2 cells [1]) | effect on DOX cytotoxicity (HepG2 cells [2]) | effect on DOX cytotoxicity (MCF-7 cells) | concentration that modestly enhanced DOX's anticancer activity (MDA-MB-468 cells) [µM] | effect on DOX cytotoxicity (MDA-MB-468 cells) |
| --- | --- | --- | --- | --- | --- |
| CC(=O)NC(C(=O)N(C)CCC[P+](c1ccccc1)(c1ccccc1)c1ccccc1)C(C)(C)SSC(=O)N(C)CCOC(C)=O (stereo not drawn) [APT-1-TPP] | non-toxic | potentiated DOX cytotoxicity in a dose-dependent manner | synergistically enhanced its activity | ≥ 100 | no protective effect |
| COC(=O)C(NC(C)=O)C(C)(C)SSC(=O)N(C)CCOC(C)=O (stereo not drawn) [APT-1] | non-toxic | no protective effect | did not blunt DOX cytotoxicity |  | did not provide cytoprotection |
